Legend:
gp140trk = assay: trk tyrosine phosphorylation in explanted embryonic dorsal root ganglia treated with NGF; type: cell-based, mouse; parameters: dose or concentration left out as unconfirmed
Description: FIGS. 4A-B show NGF-dependent tyrosine phosphorylation of gp140trk in the human neuroblastoma cell lines LA-N-5, SY5Y, and dorsal root ganglia from mouse embryos. FIG. 4A, gp140trk was immunoprecipitated from untreated (-) or NGF treated (+) LA-N-5 cells (K. H. Sonnenfeld and D. N. Ishii, J. Neurosci. Res. 8:375-391 (1982)), SY5Y cells (K. H. Sonnenfeld and D. N. Ishii, (1982)), NR18 cells (M. A. Bothwell et al., Cell 21:857-866 (1980)), or PC12 cells. Immunoprecipitates were probed with P-tyr antibodies. The differences in trk protein mobilities are due to differences in glycosylation. FIG. 4B, Tyrosine phosphorylation of gp140trk in DRGs from 13.5 day or 14.5 day embryonic mice. […] Tyrosine phosphorylated gp140trk from NGF-treated (+) PC12 cells or untreated (-) PC12 cells is shown for comparison. Samples were normalized for cell protein. Molecular weight markers in kDa are indicated.
Cell lines were treated with 100 ng/ml NGF for 5 min and gp140trk immunoprecipitated as in FIG. 1. DRGs were prepared by dissection for 13.5 or 14.5 day mouse embryos. 100 DRG's were treated with NGF, washed, and subjected to Dounce homogenization in 1% NP40 lysis buffer. Lysates were immunoprecipitated with trk antibody and the trk proteins were analyzed by antiphosphotyrosine immunoblots. […]

p140^prototrk [1] = assay: NGF-dependent trk tyrosine phosphorylation in LA-N-5 neuroblastoma cells; type: cell-based, human; conditions: LA-N-5 cells, 100 ng/ml NGF for 5 min
Description: FIGS. 4A-B show NGF-dependent tyrosine phosphorylation of gp140trk in the human neuroblastoma cell lines LA-N-5, SY5Y, and dorsal root ganglia from mouse embryos. FIG. 4A, gp140trk was immunoprecipitated from untreated (-) or NGF treated (+) LA-N-5 cells (K. H. Sonnenfeld and D. N. Ishii, J. Neurosci. Res. 8:375-391 (1982)), SY5Y cells (K. H. Sonnenfeld and D. N. Ishii, (1982)), NR18 cells (M. A. Bothwell et al., Cell 21:857-866 (1980)), or PC12 cells. Immunoprecipitates were probed with P-tyr antibodies. The differences in trk protein mobilities are due to differences in glycosylation. FIG. 4B, Tyrosine phosphorylation of gp140trk in DRGs from 13.5 day or 14.5 day embryonic mice. DRGs were maintained in 100 ng/ml NGF for ≥10 min prior to lysis and immunoprecipitation with trk antibodies. trk immunoprecipitates were probed with P-tyr antibody. Tyrosine phosphorylated gp140trk from NGF-treated (+) PC12 cells or untreated (-) PC12 cells is shown for comparison. Samples were normalized for cell protein. Molecular weight markers in kDa are indicated.
Cell lines were treated with 100 ng/ml NGF for 5 min and gp140trk immunoprecipitated as in FIG. 1. DRGs were prepared by dissection for 13.5 or 14.5 day mouse embryos. […] Lysates were immunoprecipitated with trk antibody and the trk proteins were analyzed by antiphosphotyrosine immunoblots. […]

p140^prototrk [2] = target: p140^prototrk (Rattus norvegicus, UniProt P35739); assay: trk tyrosine phosphorylation in rtrk-3T3 cells, suramin treatment followed by NGF (in vivo and immune complex kinase assays); type: cell-based; conditions: suramin treated rtrk-3T3 cells, NGF (500 ng/ml) added for 10 min
Chain of p140^prototrk (Rattus norvegicus, UniProt P35739) (P35739 33-799): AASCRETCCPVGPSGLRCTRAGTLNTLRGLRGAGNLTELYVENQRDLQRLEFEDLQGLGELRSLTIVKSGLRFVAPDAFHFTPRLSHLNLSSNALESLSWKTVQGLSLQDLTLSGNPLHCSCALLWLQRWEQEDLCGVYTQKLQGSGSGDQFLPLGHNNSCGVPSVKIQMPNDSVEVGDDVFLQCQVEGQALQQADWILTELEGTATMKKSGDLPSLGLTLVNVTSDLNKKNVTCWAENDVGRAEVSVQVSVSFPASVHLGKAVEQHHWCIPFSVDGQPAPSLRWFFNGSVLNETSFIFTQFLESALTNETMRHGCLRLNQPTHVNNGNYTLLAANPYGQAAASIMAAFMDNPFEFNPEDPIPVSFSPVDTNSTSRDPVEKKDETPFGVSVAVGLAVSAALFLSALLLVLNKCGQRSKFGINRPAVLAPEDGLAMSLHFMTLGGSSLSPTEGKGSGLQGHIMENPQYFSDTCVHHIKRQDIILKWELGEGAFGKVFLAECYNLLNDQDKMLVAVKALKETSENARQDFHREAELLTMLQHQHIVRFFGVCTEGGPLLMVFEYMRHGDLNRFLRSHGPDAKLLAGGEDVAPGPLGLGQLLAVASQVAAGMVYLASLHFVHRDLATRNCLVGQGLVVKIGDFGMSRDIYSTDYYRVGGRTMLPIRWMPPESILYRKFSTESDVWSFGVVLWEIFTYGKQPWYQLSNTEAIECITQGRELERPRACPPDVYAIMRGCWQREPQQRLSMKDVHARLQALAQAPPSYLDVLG
Description: Cells were treated with suramin (lanes 2 and 5) or with 500 ng/ml NGF for 10 min following suramin treatment.
rtrk 3T3 cells were generated by CaPO4 mediated transfection of a rat trk cDNA into NIH-3T3 cells. […] PC12 cells or rtrk 3T3 cells (2×10^7) were labeled with ^32 P orthophosphate (1 mCi.ml in 4 ml) for 4 hr at 37° C. […] For c, rtrk 3T3 cells were treated with 1 mM suramin in Dulbecco's Modified Eagle Medium (DMEM) for 2 h or mock treated. Following extensive washing of the cells with DMEM, NGF was added for the time indicated. Cells were lysed and the lysates were immunoprecipitated with trk antibody. Immunoprecipitates were either subjected to immunoblot analysis with the phosphotyrosine (Ptyr) monoclonal antibody 4G10 (Lanes 1-3), or were analyzed in kinase assays. […] Similar amounts of trk protein were present in each lane.

NGF: neurotrophic polypeptide factor, nerve growth factor; ligand of trk proto-oncogene receptor
phosphorylation of trk protein in 13.5 day DRG (gp140trk; E13.5 mouse embryo DRG): not in two independent preparations | phosphorylation of trk protein in 14.5 day DRG (gp140trk; E14.5 mouse embryo DRG): detectable | p140^prototrk tyrosine phosphorylation (p140^prototrk [1]): enhanced | stimulation of tyrosine phosphorylation of gp140^prototrk in vivo and in vitro (p140^prototrk [2]): at least 10 fold

Reference: patent US6071709A, “Nerve growth factor/receptor complex” (The United States of America as represented by the …, priority 1992, dated 2000)
